# Experimental data as given in US4605739A, “Benzoyl indolecarboxylates” (Kowa Co., Ltd., priority 1983, dated 1986).
# Target: chymotrypsin (Bos taurus, UniProt P00766)
# Experiment: chymotrypsin inhibitory effect (procedure of Muramatsu et al; acetyl-L-tyrosine ethyl ester substrate, Hestrin method)
# Type: biochemical
# Details: 10 min preincubation, pH 8.0 Tris-HCl, 37° C., 30 min, absorbance 530 nm, read-out: Inhibitory Activity, 50% Inhibitory Concentration
# Description: Some selected compounds of this invention were tested with respect to their chymotrypsin inhibitory effects.
# The tests were conducted in accordance with the procedure of Muramatsu et al [The Journal of Biochemistry, 62, 408 (1967)]. A mixture was prepared which was made up of 0.1 ml of a dimethylsulfoxide solution of each test compound, 0.1 ml of water and 0.1 ml of a buffer solution containing 10 μg/ml of chymotrypsin (0.1M Tris-HCl buffer, pH 8.0). The mixture was incubated for 10 minutes, followed by addition of 0.2 ml of a buffer solution containing 25 mM of an ethyl ester of acetyl-L-tyrosine. The resulting mixture was reacted at 37° C. for 30 minutes. The remaining substrate was caused to develop a color by the Hestrin method, whereupon its absorbance was measured at 530 nm. For comparative purposes, use was made of tosylphenylalanine chloromethyl ketone (TPCK) which is known as a good inhibitor for chymotrypsin.
row,IC50,Compound
1,400 nM,COc1ccc2[nH]c(C)c(CC(=O)Oc3ccc(C(=O)N4CCN(C(C)C)CC4)cc3)c2c1 [Example 3]
2,300 nM,COc1ccc2c(c1)c(CC(=O)Oc1ccc(C(=O)N3CCN(C(C)C)CC3)cc1)c(C)n2C [Example 2]
3,80 nM,COc1ccc2[nH]cc(CC(=O)Oc3ccc(C(=O)N4CCN(C(C)C)CC4)cc3)c2c1 [Example 7]
4,6000 nM,CC(C)N1CCN(C(=O)c2ccc(OC(=O)Cc3c[nH]c4ccccc34)cc2)CC1 [Example 14]
5,500000 nM,"Cc1ccc(S(=O)(=O)NC(Cc2ccccc2)C(=O)CCl)cc1 (centres unmarked) [TPCK, tosylphenylalanine chloromethyl ketone, reference compound]"
6,700 nM,Cc1[nH]c2ccccc2c1CC(=O)Oc1ccc(C(=O)N2CCN(C(C)C)CC2)cc1 [Example 10]
7,600 nM,CCCCc1ccc2[nH]c(C)c(CC(=O)Oc3ccc(C(=O)N4CCN(C(C)C)CC4)cc3)c2c1 [Example 5]
8,500 nM,Cc1ccc2[nH]c(C)c(CC(=O)Oc3ccc(C(=O)N4CCN(C(C)C)CC4)cc3)c2c1 [Example 4]
